In patent US20220401514A1, “ANTIMICROBIAL, BACTERIOPHAGE-DERIVED POLYPEPTIDES AND THEIR USE AGAINST GRAM-NEGATIVE AND ACID-FAST BACTERIA” (CONTRAFECT CORPORATION, priority 2019, published 2022):

Columns and labels:
[1] = test system: P. aeruginosa strain CFS-1292; assay: MIC at pH 6, pH 7 and pH 8; type: cell-based, Pseudomonas aeruginosa
Procedure: The Chp peptides were further evaluated at varying pH levels. The MIC values were determined at pH 6, pH 7, and pH 8 for 18 different Chp peptides against P. aeruginosa strain CFS-1292. […]

[2] = test system: P. aeruginosa strain PAO1; assay: MIC against PAO1 in Mueller-Hinton broth with 50% human plasma or human serum; type: cell-based, Pseudomonas aeruginosa
[3] = test system: P. aeruginosa strain CFS-1292; assay: MIC in presence of mouse, rat, rabbit and human serum ([…] each); type: cell-based, Pseudomonas aeruginosa; details: P. aeruginosa CFS-1292
Procedure: The activity of several Chp peptides against P. aeruginosa strain CFS-1292 in animal serum was evaluated. […] Rat, mouse, and rabbit serum were all obtained from pooled gender samples.

M. fortuitum = assay: 45 hr MIC against M. fortuitum (NTM); type: cell-based, Mycobacterium fortuitum; details: M. fortuitum subsp. Fortuitum da Costa Cruz. ATCC 6841
M. intracellulare = assay: 45 hr MIC against M. intracellulare (NTM); type: cell-based, Mycobacterium intracellulare; details: M. intracellulare (Cuttino and McCabe) Runyon ATCC 13950
M. scrofulaceum = assay: 45 hr MIC against M. scrofulaceum (NTM); type: cell-based, Mycobacterium scrofulaceum; details: M. scrofulaceum Prissick and Masson ATCC 19981
[4] = test system: mature biofilms formed by P. aeruginosa strain ATCC 17647; assay: Minimal Biofilm Eradicating Concentration (MBEC), Calgary Biofilm Device, crystal violet; type: cell-based, Pseudomonas aeruginosa
Procedure: Biofilms are then washed and treated with e.g., a 2-fold dilution series of the lysin in TSBg at e.g., 37° C. for 24 hours. After treatment, wells are washed, air-dried at e.g., 37° C. and stained with e.g., 0.05% crystal violet for 10 minutes.
Determination of Minimal Biofilm Eradicating Concentrations (MBEC). […] Biofilms were washed and treated with a 2-fold dilution series of each peptide in TSBg at 37° C. for 16 hours. […] The OD600 of extracted crystal violet was determined.

Pseudomonas aeruginosa = assay: microbe, parasite or virus in culture; type: cell-based; details: for MIC: CAA without human serum
Acinetobacter baumannii = assay: microbe, parasite or virus in culture; type: cell-based
Escherichia coli = assay: microbe, parasite or virus in culture; type: cell-based
Outline: (§1)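 Human serum was added to CAA broth for these MIC determinations with peptides.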

Enterobacter cloacae = assay: microbe, parasite or virus in culture; type: cell-based
Outline: as §1

M. avium = assay: 45 hr MIC against M. avium (NTM); type: cell-based, Mycobacterium avium; details: M. avium Chester ATCC 700898
[5] = P. aeruginosa isolates (n per peptide in table)
[6] = A. baumannii isolates (n per peptide in table)
[7] = E. coli isolates (n per peptide in table)
[8] = E. cloacae isolates (n per peptide in table)

## MARRYRLSRRRSRRLFSRTALRMHRRNRLRRIMRGGIRF [Chp4]
[1]; CAA media (pH 7)
  MIC: 0.5 µg/mL
[1]; pH 6
  MIC: 0.25 µg/mL
[1]; pH 7
  MIC: 0.5 µg/mL
[1]; pH 8
  MIC: 1 µg/mL
[2]
  MIC: 2 µg/mL
  Minimal inhibitory concentration, Human Serum: 2 µg/mL
[3]; BALB/C mouse serum […]
  MIC BALB/C Mouse Serum: 32 µg/mL
[3]; CAA
  MIC CAA: 0.5 µg/mL
[3]; New Zealand White rabbit serum […]
  MIC New Zealand White Rabbit Serum: 2 µg/mL
[3]; Sprague Dawley rat serum […]
  MIC Sprague Dawley Rat Serum: 2 µg/mL
[3]; human serum […]
  MIC Human Serum: 0.5 µg/mL
M. fortuitum
  45 hr MIC: 4 µg/mL
M. intracellulare
  45 hr MIC: 1 µg/mL
M. scrofulaceum
  45 hr MIC: 2 µg/mL
[4]; MBEC assay format, summary statement, strain not stated there
  MBEC: 0.25 µg/mL
[4]; P. aeruginosa ATCC 17647 mature biofilm, tryptic soy broth with 2% glucose
  MBEC: 0.25 µg/mL
Pseudomonas aeruginosa; P. aeruginosa 453 (Human clinical isolate, HSS), RSC 1292
  MIC: 4 µg/mL
Pseudomonas aeruginosa; P. aeruginosa (ATCC 14213, human hip wound), RSC 1111
  MIC: 4 µg/mL
Pseudomonas aeruginosa; P. aeruginosa (ATCC 15152, abscess in middle ear), RSC 1110
  MIC: 4 µg/mL
Pseudomonas aeruginosa; P. aeruginosa (ATCC 15692, infected wound), RSC 489
  MIC: 4 µg/mL
Pseudomonas aeruginosa; P. aeruginosa (ATCC 15692, infected wound), RSC 1115
  MIC: 4 µg/mL
Pseudomonas aeruginosa; P. aeruginosa (ATCC 17646, human liver abscess), RSC 1109
  MIC: 4 µg/mL
Pseudomonas aeruginosa; P. aeruginosa (ATCC 19142, tracheobronchial secretion), RSC 1108
  MIC: 4 µg/mL
Pseudomonas aeruginosa; P. aeruginosa (ATCC 25102, bacteriophage host), RSC 1114
  MIC: 4 µg/mL
Pseudomonas aeruginosa; P. aeruginosa (ATCC 27853, MIC control strain), RSC 815
  MIC: 4 µg/mL
Pseudomonas aeruginosa; P. aeruginosa (ATCC BAA-27, lab strain), RSC 1113
  MIC: 4 µg/mL
Pseudomonas aeruginosa; P. aeruginosa (PAO1, alternate source, HER1018), RSC 490
  MIC: 4 µg/mL
Pseudomonas aeruginosa; [5]
  MIC50: 1 µg/mL
  MIC100: 1 µg/mL
  MIC Range: 0.5 to 1 µg/mL
Acinetobacter baumannii; [6]
  MIC50: 0.5 µg/mL
  MIC100: 1 µg/mL
  MIC Range: 0.25 to 1 µg/mL
Acinetobacter baumannii; Acinetobacter baumannii (clinical isolate HSS), RSC 30, CAA without human serum
  MIC: 4 µg/mL
Acinetobacter baumannii; Acinetobacter baumannii (clinical isolate HSS), RSC 32, CAA without human serum
  MIC: 4 µg/mL
Acinetobacter baumannii; Acinetobacter baumannii ATCC BAA 747, CAA supplemented with human serum
  MIC: 0.125 µg/mL
Escherichia coli; E. coli (ATCC 25922, MIC control strain), RSC 813, CAA without human serum
  MIC: 2 µg/mL
Escherichia coli; E. coli (HM346, colon, Crohn's disease), RSC 1212, CAA without human serum
  MIC: 4 µg/mL
Escherichia coli; [7]
  MIC50: 1 µg/mL
  MIC100: 2 µg/mL
  MIC Range: 0.5 to 4 µg/mL
Escherichia coli; Escherichia coli ATCC 25922, CAA supplemented with human serum
  MIC: 0.5 µg/mL
Enterobacter cloacae; [8]
  MIC50: 0.5 µg/mL
  MIC100: 1 µg/mL
  MIC Range: 0.25 to 2 µg/mL
Enterobacter cloacae; Enterobacter cloacae (ATCC 13047, MIC control strain), RSC 1240, CAA without human serum
  MIC: 4 µg/mL
Enterobacter cloacae; Enterobacter cloacae ATCC 13047, CAA supplemented with human serum
  MIC: 1 µg/mL
M. avium
  45 hr MIC: 1 µg/mL
